Measurements: US20260306503A1, “(S)-2-HYDROXY-6-((4-(2-(2-HYDROXYETHYL)NICOTINOYL)MORPHOLIN-3-YL)METHOXY)BENZALDEHYD FOR USE IN THE TREATMENT OF SICKLE CELL DISEASE” (Global Blood Therapeutics, Inc., priority 2023, published 2026)

Tested on: participants with SCD
Assay: Preliminary blood analysis of SCD patients given oral Compound I, 300 mg QD for 14 days then 200 mg QD through Week 12 (Part A Sub Study 2);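 as to Bilirubin total: values in mg/dL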
Type: in vivo, human
Conditions: for Bilirubin total: Day 0 (screening) 4.84
Description: Part A of this study is a Phase 2 randomized, open-label, dose-finding study in approximately 60 adult participants with SCD. The primary objective of Part A of this study is to assess the effects of Compound I in adult participants with SCD as measured by change in hemoglobin.
Participants are screened for eligibility in the study from Day −28 through Day −1. Eligible participants are randomized on Day 1 based on a 1:1 (100 mg: 150 mg) allocation and will receive their initial dose (loading dose) of Compound I. After completion of Day 1 assessments and subsequent loading doses, participants will continue with administration of their maintenance dose daily through Week 12.
Some newly enrolled participants in Part A will receive a loading dose regimen of 300 mg of Compound I once daily over the first 14 days. Participants will then receive 200 mg once daily maintenance doses through Week 12.

O=Cc1c(O)cccc1OC[C@@H]1COCCN1C(=O)c1cccnc1CCO [Compound I, (S)-2-hydroxy-6-((4-(2-(2-hydroxyethyl)nicotinoyl)morpholin-3-yl)methoxy)benzaldehyde]
Hematocrit (HCT) (Patient B, Day 43, Day 0 (screening) 23.5): 45.4%
Aspartate Aminotransferase (AST) (Patient B, Day 43, Day 0 (screening) 41.1): 27.1 IU/L
Alkaline phosphatase (Patient B, Day 43, Day 0 (screening) 49.3): 67.6 IU/L
Platelet count (Patient B, Day 43, Day 0 (screening) 360): 260 K/μL
Lactate dehydrogenase (LDH) (Patient B, Day 43, Day 0 (screening) 371): 151 IU/L
Bilirubin direct (Patient B, Day 57, Day 0 (screening) 0.18): 0.18 mg/dL
Bilirubin indirect (Patient B, Day 57, Day 0 (screening) 4.66): 0.39 mg/dL
Bilirubin total (Patient B, Day 57): 0.57 mg/dL
Absolute neutrophil (Patient B, Day 57, Day 0 (screening) 6.9): 5.5 K/μL
Hemoglobin (HGB) (Patient B, Day 57, Day 0 (screening) 8.3): 14.3 g/dL
Reticulocytes (Patient B, Day 57, Day 0 (screening) 11.5): 0.9%
Alanine Aminotransferase (ALT) (Patient B, Day 57, Day 0 (screening) 22.0): 17.9 IU/L
Hematocrit (HCT) (Patient B, Day 57, Day 0 (screening) 23.5): 42.6%
Aspartate Aminotransferase (AST) (Patient B, Day 57, Day 0 (screening) 41.1): 26.2 IU/L
Alkaline phosphatase (Patient B, Day 57, Day 0 (screening) 49.3): 69.6 IU/L
Platelet count (Patient B, Day 57, Day 0 (screening) 360): 290 K/μL
Lactate dehydrogenase (LDH) (Patient B, Day 57, Day 0 (screening) 371): 152 IU/L
Bilirubin direct (Patient B, Day 85, Day 0 (screening) 0.18): <0.01 mg/dL
Bilirubin total (Patient B, Day 85): 0.94 mg/dL
Absolute neutrophil (Patient B, Day 85, Day 0 (screening) 6.9): 5.6 K/μL
Hemoglobin (HGB) (Patient B, Day 85, Day 0 (screening) 8.3): 14.9 g/dL
Reticulocytes (Patient B, Day 85, Day 0 (screening) 11.5): 1.1%
Alanine Aminotransferase (ALT) (Patient B, Day 85, Day 0 (screening) 22.0): 20.0 IU/L
Hematocrit (HCT) (Patient B, Day 85, Day 0 (screening) 23.5): 43.7%
Aspartate Aminotransferase (AST) (Patient B, Day 85, Day 0 (screening) 41.1): 27.1 IU/L
Alkaline phosphatase (Patient B, Day 85, Day 0 (screening) 49.3): 72.6 IU/L
Platelet count (Patient B, Day 85, Day 0 (screening) 360): 256 K/μL
Lactate dehydrogenase (LDH) (Patient B, Day 85, Day 0 (screening) 371): 141 IU/L
Bilirubin direct (Patient C, Day 1, Day 0 (screening) 0.58): 0.58 mg/dL
Bilirubin indirect (Patient C, Day 1, Day 0 (screening) 4.26): 4.87 mg/dL
Bilirubin total (Patient C, Day 1): 5.45 mg/dL
Alanine Aminotransferase (ALT) (Patient C, Day 1, Day 0 (screening) 20.0): 24.8 IU/L
Aspartate Aminotransferase (AST) (Patient C, Day 1, Day 0 (screening) 48.0): 62.0 IU/L
Alkaline phosphatase (Patient C, Day 1, Day 0 (screening) 52.4): 51.4 IU/L
Lactate dehydrogenase (LDH) (Patient C, Day 1, Day 0 (screening) 533): 691 IU/L
Bilirubin direct (Patient C, Day 8, Day 0 (screening) 0.58): 0.38 mg/dL
Absolute neutrophil (Patient C, Day 8, Day 0 (screening) 0.8): 6.7 K/μL
Bilirubin indirect (Patient C, Day 8, Day 0 (screening) 4.26): 3.85 mg/dL
Bilirubin total (Patient C, Day 8): 4.23 mg/dL
Hemoglobin (HGB) (Patient C, Day 8, Day 0 (screening) 7.1): 9.1 g/dL
Reticulocytes (Patient C, Day 8, Day 0 (screening) 13.7): 9.9%
Alanine Aminotransferase (ALT) (Patient C, Day 8, Day 0 (screening) 20.0): 28.9 IU/L
Hematocrit (HCT) (Patient C, Day 8, Day 0 (screening) 21.0): 25.9%
Aspartate Aminotransferase (AST) (Patient C, Day 8, Day 0 (screening) 48.0): 57.0 IU/L
Alkaline phosphatase (Patient C, Day 8, Day 0 (screening) 52.4): 61.5 IU/L
Platelet count (Patient C, Day 8, Day 0 (screening) 392): 405 K/μL
Lactate dehydrogenase (LDH) (Patient C, Day 8, Day 0 (screening) 533): 545 IU/L
Bilirubin direct (Patient C, Day 15, Day 0 (screening) 0.58): 0.38 mg/dL
Absolute neutrophil (Patient C, Day 15, Day 0 (screening) 0.8): 3.9 K/μL
Bilirubin indirect (Patient C, Day 15, Day 0 (screening) 4.26): 3.12 mg/dL
Bilirubin total (Patient C, Day 15): 3.50 mg/dL
Hemoglobin (HGB) (Patient C, Day 15, Day 0 (screening) 7.1): 10.2 g/dL
Reticulocytes (Patient C, Day 15, Day 0 (screening) 13.7): 5.0%
Alanine Aminotransferase (ALT) (Patient C, Day 15, Day 0 (screening) 20.0): 18.6 IU/L
Hematocrit (HCT) (Patient C, Day 15, Day 0 (screening) 21.0): 29.8%
Aspartate Aminotransferase (AST) (Patient C, Day 15, Day 0 (screening) 48.0): 34.1 IU/L
Alkaline phosphatase (Patient C, Day 15, Day 0 (screening) 52.4): 54.4 IU/L
Platelet count (Patient C, Day 15, Day 0 (screening) 392): 482 K/μL
Lactate dehydrogenase (LDH) (Patient C, Day 15, Day 0 (screening) 533): 327 IU/L
Bilirubin direct (Patient C, Day 29, Day 0 (screening) 0.58): 0.38 mg/dL
Absolute neutrophil (Patient C, Day 29, Day 0 (screening) 0.8): 2.6 K/μL
Bilirubin indirect (Patient C, Day 29, Day 0 (screening) 4.26): 2.51 mg/dL
Bilirubin total (Patient C, Day 29): 2.89 mg/dL
Hemoglobin (HGB) (Patient C, Day 29, Day 0 (screening) 7.1): 11.6 g/dL
Reticulocytes (Patient C, Day 29, Day 0 (screening) 13.7): 1.8%
Alanine Aminotransferase (ALT) (Patient C, Day 29, Day 0 (screening) 20.0): 17.2 IU/L
Hematocrit (HCT) (Patient C, Day 29, Day 0 (screening) 21.0): 33.9%
Aspartate Aminotransferase (AST) (Patient C, Day 29, Day 0 (screening) 48.0): 39.1 IU/L
Alkaline phosphatase (Patient C, Day 29, Day 0 (screening) 52.4): 51.4 IU/L
Platelet count (Patient C, Day 29, Day 0 (screening) 392): 357 K/μL
Lactate dehydrogenase (LDH) (Patient C, Day 29, Day 0 (screening) 533): 256 IU/L
Bilirubin direct (Patient C, Day 43, Day 0 (screening) 0.58): 0.28 mg/dL
Absolute neutrophil (Patient C, Day 43, Day 0 (screening) 0.8): 1.0 K/μL
Bilirubin indirect (Patient C, Day 43, Day 0 (screening) 4.26): 4.44 mg/dL
Bilirubin total (Patient C, Day 43): 4.72 mg/dL
Hemoglobin (HGB) (Patient C, Day 43, Day 0 (screening) 7.1): 10.5 g/dL
Reticulocytes (Patient C, Day 43, Day 0 (screening) 13.7): 2.8%
Alanine Aminotransferase (ALT) (Patient C, Day 43, Day 0 (screening) 20.0): 26.8 IU/L
Hematocrit (HCT) (Patient C, Day 43, Day 0 (screening) 21.0): 30.1%
Aspartate Aminotransferase (AST) (Patient C, Day 43, Day 0 (screening) 48.0): 46.1 IU/L
Alkaline phosphatase (Patient C, Day 43, Day 0 (screening) 52.4): 58.5 IU/L
Platelet count (Patient C, Day 43, Day 0 (screening) 392): 416 K/μL
Lactate dehydrogenase (LDH) (Patient C, Day 43, Day 0 (screening) 533): 291 IU/L
Bilirubin direct (Patient C, Day 57, Day 0 (screening) 0.58): 0.18 mg/dL
Absolute neutrophil (Patient C, Day 57, Day 0 (screening) 0.8): 4.3 K/μL
Bilirubin indirect (Patient C, Day 57, Day 0 (screening) 4.26): 3.44 mg/dL
Bilirubin total (Patient C, Day 57): 3.62 mg/dL
Hemoglobin (HGB) (Patient C, Day 57, Day 0 (screening) 7.1): 10.4 g/dL
Reticulocytes (Patient C, Day 57, Day 0 (screening) 13.7): 4.2%
Alanine Aminotransferase (ALT) (Patient C, Day 57, Day 0 (screening) 20.0): 21.3 IU/L
Hematocrit (HCT) (Patient C, Day 57, Day 0 (screening) 21.0): 28.9%
Aspartate Aminotransferase (AST) (Patient C, Day 57, Day 0 (screening) 48.0): 46.1 IU/L
Alkaline phosphatase (Patient C, Day 57, Day 0 (screening) 52.4): 56.4 IU/L
Platelet count (Patient C, Day 57, Day 0 (screening) 392): 413 K/μL
Lactate dehydrogenase (LDH) (Patient C, Day 57, Day 0 (screening) 533): 296 IU/L
Bilirubin direct (Patient C, Day 85, Day 0 (screening) 0.58): <0.01 mg/dL
Absolute neutrophil (Patient C, Day 85, Day 0 (screening) 0.8): 4.9 K/μL
Bilirubin total (Patient C, Day 85): 3.62 mg/dL
Hemoglobin (HGB) (Patient C, Day 85, Day 0 (screening) 7.1): 10.0 g/dL
Reticulocytes (Patient C, Day 85, Day 0 (screening) 13.7): 5.9%
Alanine Aminotransferase (ALT) (Patient C, Day 85, Day 0 (screening) 20.0): 20.6 IU/L
Hematocrit (HCT) (Patient C, Day 85, Day 0 (screening) 21.0): 28.2%
Aspartate Aminotransferase (AST) (Patient C, Day 85, Day 0 (screening) 48.0): 39.1 IU/L
Alkaline phosphatase (Patient C, Day 85, Day 0 (screening) 52.4): 55.4 IU/L
Platelet count (Patient C, Day 85, Day 0 (screening) 392): 457 K/μL
Lactate dehydrogenase (LDH) (Patient C, Day 85, Day 0 (screening) 533): 276 IU/L
